Assay results published in patent US9873918B2, “Treatment of acute myeloid leukemia and myelodysplastic syndromes” (Albert Einstein College of Medicine, Inc., priority 2011, dated 2018).

Tests used:
Test in all cases: Colony formation (clonogenic) assay in methylcellulose after lentiviral IL1RAP shRNA knockdown
Assay type in all cases: cell-based, human
Settings in all cases: p<0.05
[1] = system: HEL cells
From the text: (§1) FIG. 18A-18B. IL1RAP knockdown decreases clonogenic potential and leads to increased cell death of AML cells. A) Colony formation assay in semisolid methylcellulose media of AML cells (THP-1, OCI-AML3, HEL, HL-60) infected with control and two IL1RAP-directed shRNAs. Mean and standard deviations are shown. Asterisks indicate statistical significance (p<0.05). B) Analysis of apoptosis/necrosis with Annexin V/DAPI in THP-1 cells infected with control and IL1RAP shRNAs. […] Statistical significance is indicated (* indicate p<0.05).
(§2) For knockdown studies, shRNA template oligonucleotides (Luciferase Control shRNA: 5′-[…]-3′ (SEQ ID NO:3); IL-1RAP shRNA 1: 5′-[…]-3′ (SEQ ID NO:4); IL-1RAP shRNA 2: 5′-[…]-3′) (SEQ ID NO:5) were cloned into the pSIH1-H1-copGFP shRNA vector system (System Biosciences, Mountain View, Calif.). For production of lentiviral particles, lentiviral constructs with packaging vectors were transfected into 293T producer cells using Fugene HD transfection reagent (Roche). Supernatant was harvested after 48 and 72 hours, and concentrated by ultracentrifugation. For knockdown studies, HL60, HEL, OCI-AML3, MOLM-13, THP1 and UT-7 cell lines were transfected with the short-hairpin-containing lentivirus (MOI=10), incubated for 48 or 72 hours. After culture with fresh medium, GFP-positive cells were sorted using a FACS Aria II sorter (BD Biosciences) and used for experiments. Level of knockdown of Il-1RAP was determined by flow cytometry.
(§3) THP1 cells were transduced with these lentiviral shRNAs or with a non-silencing control, and subjected sorted GFP-positive, Annexin V-negative, DAPI-negative cells to clonogenic assays. Knockdown of IL1RAP led to a significant (p<0.05) 94% and 98% inhibition of leukemic colony formation of THP1 cells in comparison to the non-silencing control (FIG. 18A).

[2] = system: HL-60 cells
From the text: as §1, §2, §3

[3] = system: OCI-AML3 cells
From the text: as §1, §2, §3

Substance	reduced clonogenicity [1] [%]	reduced clonogenicity [2] [%]	reduced clonogenicity [3] [%]
shRNA#2: IL1RAP-directed lentiviral shRNA, template 5′-cgggcattaattgatttcctactatattc-3′ (SEQ ID NO:5), in pSIH1-H1-copGFP vector (DNA CGGGCATTAATTGATTTCCTACTATATTC)	81	38.5	62
shRNA#1: IL1RAP-directed lentiviral shRNA, template 5′-tggccttactctgatctggtattggacta-3′ (SEQ ID NO:4), in pSIH1-H1-copGFP vector (DNA TGGCCTTACTCTGATCTGGTATTGGACTA)	69	45	51.5
